Reference: patent publication US6444617B1, “Fused-heterocycle dicarboxylic acid diamide derivatives or salts thereof, herbicide and usage thereof” (Nihon Nohyaku Co., Ltd., priority 1998, dated 2002)

Legend:
Type in all cases: in vivo
[1] = tested on: monochoria (Monochoria vaginalis Presl); assay: Test Example 2: herbicidal effect on paddy field weeds after emergence; settings: Dosage 5 kg/ha; one-leaved stage; 21 days after treatment
Summary of the method: (§1)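 Weeds in flooded paddy-soil pots were grown to the one-leaved stage, then the soil was treated with the compound solution at a set dosage.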

[2] = tested on: bulrush (Scirpus juncoides Roxb.); assay: as above; settings: Dosage 5 kg/ha; one-leaved stage; 21 days after treatment
Summary of the method: as §1

[3] = tested on: barnyard grass (Echinochloa crus-galli Beauv.); assay: as above; settings: Dosage 5 kg/ha; one-leaved stage; 21 days after treatment
Summary of the method: as §1

[4] = tested on: bird's eye speedwell (Veronica persica Poir.), Vp; assay: Test Example 3: herbicidal effect on upland weeds before emergence; settings: dosage 5 kg/ha
Summary of the method: (§2)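 Herbicidal activity was rated from kill rate determined 14 days post-spray, the compound having been applied pre-emergence as a liquid agent.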

[5] = tested on: barnyard grass (Echinochloa crus-galli Beauv.), Ec; assay: as above; settings: dosage 5 kg/ha
Summary of the method: as §2

[6] = tested on: forxtail grass (Alopecurus aequalis var. amurensis Ohwi), Am; assay: as above; settings: foxtail grass, dosage 5 kg/ha
Summary of the method: as §2

[7] = tested on: cocklebur (Xanthium strumarium L.), Xs; assay: as above; settings: dosage 5 kg/ha
Summary of the method: as §2

[8] = tested on: cleavers (Galium aparine L.), Ga; assay: as above; settings: dosage 5 kg/ha
Summary of the method: as §2

[9] = tested on: velvetleaf (Abutilon theophtasti L.), At; assay: as above; settings: dosage 5 kg/ha
Summary of the method: as §2

soybean plant = assay: Test Example 4: phytotoxicity to upland crop plants, treatment after emergence; settings: dosage 5 kg/ha, sprayed after emergence, judged 14 days after treatment
Summary of the method: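 Seeds sown in soil and covered. Plants raised to specified leaf stages. Agent with test compound at a prescribed concentration sprayed. Herbicidal effect and crop damage scored after 14 days as weed-killing rate.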

wheat = assay: as above; settings: dosage 5 kg/ha, sprayed after emergence, judged 14 days after treatment
Summary of the method: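 Upland weeds and crop plants (soybean, wheat) are grown from seed in soil until they reach given leaf stages, then treated by spraying with the compound-containing agent; effects are judged two weeks later.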

soybean plant (So) = assay: Test Example 3: phytotoxicity to upland crop plants, treatment before emergence; settings: dosage 5 kg/ha
Summary of the method: (§3)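 Pre-emergence treatment: a liquid preparation containing a prescribed concentration of test compound was sprayed, and injury to soybean and wheat was assessed 14 days later. Phytotoxicity was judged against a scoring criterion, alongside weed-killing rate.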

wheat (Wh) = assay: as above; settings: dosage 5 kg/ha
Summary of the method: as §3

[10] = tested on: bulrush (Scirpus juncoides Roxb.); assay: Test Example 1: herbicidal effect on paddy field weeds before emergence; settings: Dosage 5 kg/ha
Summary of the method: (§4)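 Soil in pots is brought to paddy state and seeded with barnyard grass and bulrush; before germination, the soil receives a predetermined dosage of test compound in solution. After twenty-one days, control rate relative to untreated pots is calculated and graded.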

[11] = tested on: barnyard grass (Echinochloa crus-galli Beauv.); assay: as above; settings: Dosage 5 kg/ha
Summary of the method: as §4

[12] = tested on: bird's eye speedwell (Veronica persica Poir.), Vp; assay: Test Example 4: herbicidal effect on upland weeds after emergence; settings: dosage 5 kg/ha; sprayed after emergence; judged 14 days after treatment
Summary of the method: (§5)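 Weeds, soybean and wheat were sown in soil-filled vats, covered with soil and grown to set leaf stages before a post-emergence spray of an agent containing the compound at a prescribed concentration. Weed-killing rate and crop phytotoxicity were assessed 14 days after treatment.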

[13] = tested on: barnyard grass (Echinochloa crus-galli Beauv.), Ec; assay: as above; settings: dosage 5 kg/ha; sprayed after emergence; judged 14 days after treatment
Summary of the method: as §5

[14] = tested on: forxtail grass (Alopecurus aequalis var. amurensis Ohwi), Am; assay: as above; settings: dosage 5 kg/ha; sprayed after emergence; judged 14 days after treatment
Summary of the method: as §5

[15] = tested on: cocklebur (Xanthium strumarium L.), Xs; assay: as above; settings: dosage 5 kg/ha; sprayed after emergence; judged 14 days after treatment
Summary of the method: as §5

[16] = tested on: cleavers (Galium aparine L.), Ga; assay: as above; settings: dosage 5 kg/ha; sprayed after emergence; judged 14 days after treatment
Summary of the method: as §5

[17] = tested on: velvetleaf (Abutilon theophtasti L.), At; assay: as above; settings: dosage 5 kg/ha; sprayed after emergence; judged 14 days after treatment
Summary of the method: as §5

SMILES: CCCNC(=O)c1nc2c(cc1C(=O)Nc1c(CC)ccc(Cl)c1CC)nc(C)n2C [compound 1294]
- Post-emergence treatment Monochoria (herbicidal effect) [1]: 5 (Weed-killing rate is 100%.)
- Post-emergence treatment Bulrush (herbicidal effect) [2]: 5 (Weed-killing rate is 100%.)
- Post-emergence treatment Barnyard grass (herbicidal effect) [3]: 5 (Weed-killing rate is 100%.)
- Herbicidal effect Vp [4]: 5 (Weed-killing rate is 100%.)
- Herbicidal effect Ec [5]: 5 (Weed-killing rate is 100%.)
- Herbicidal effect Am [6]: 5 (Weed-killing rate is 100%.)
- Herbicidal effect Xs [7]: 5 (Weed-killing rate is 100%.)
- Herbicidal effect Ga [8]: 5 (Weed-killing rate is 100%.)
- Herbicidal effect At [9]: 5 (Weed-killing rate is 100%.)
- Phytotoxicity So (soybean plant): 4 (Crop-killing rate is 90-99%.)
- Phytotoxicity Wh (wheat): 5 (Crop-killing rate is 100%.)
- Phytotoxicity So (soybean plant (So)): 4 (Crop-killing rate is 90-99%.)
- Phytotoxicity Wh (wheat (Wh)): 5 (Crop-killing rate is 100%.)
- Pre-emergence treatment Bulrush (herbicidal effect) [10]: 5 (Weed-killing rate is 100%.)
- Pre-emergence treatment Barnyard grass (herbicidal effect) [11]: 5 (Weed-killing rate is 100%.)
- Herbicidal effect Vp [12]: 5 (Weed-killing rate is 100%.)
- Herbicidal effect Ec [13]: 5 (Weed-killing rate is 100%.)
- Herbicidal effect Am [14]: 5 (Weed-killing rate is 100%.)
- Herbicidal effect Xs [15]: 5 (Weed-killing rate is 100%.)
- Herbicidal effect Ga [16]: 5 (Weed-killing rate is 100%.)
- Herbicidal effect At [17]: 5 (Weed-killing rate is 100%.)

SMILES: CCNC(=O)c1nc2ccccc2nc1C(=O)Nc1c(CC)ccc(Cl)c1CC [compound 1305]
- Post-emergence treatment Monochoria (herbicidal effect) [1]: 5 (Weed-killing rate is 100%.)
- Post-emergence treatment Bulrush (herbicidal effect) [2]: 5 (Weed-killing rate is 100%.)
- Post-emergence treatment Barnyard grass (herbicidal effect) [3]: 5 (Weed-killing rate is 100%.)
- Herbicidal effect Vp [4]: 5 (Weed-killing rate is 100%.)
- Herbicidal effect Ec [5]: 5 (Weed-killing rate is 100%.)
- Herbicidal effect Am [6]: 5 (Weed-killing rate is 100%.)
- Herbicidal effect Xs [7]: 5 (Weed-killing rate is 100%.)
- Herbicidal effect Ga [8]: 5 (Weed-killing rate is 100%.)
- Herbicidal effect At [9]: 5 (Weed-killing rate is 100%.)
- Phytotoxicity So (soybean plant): 5 (Crop-killing rate is 100%.)
- Phytotoxicity Wh (wheat): 5 (Crop-killing rate is 100%.)
- Phytotoxicity So (soybean plant (So)): 5 (Crop-killing rate is 100%.)
- Phytotoxicity Wh (wheat (Wh)): 5 (Crop-killing rate is 100%.)
- Pre-emergence treatment Bulrush (herbicidal effect) [10]: 5 (Weed-killing rate is 100%.)
- Pre-emergence treatment Barnyard grass (herbicidal effect) [11]: 5 (Weed-killing rate is 100%.)
- Herbicidal effect Vp [12]: 5 (Weed-killing rate is 100%.)
- Herbicidal effect Ec [13]: 5 (Weed-killing rate is 100%.)
- Herbicidal effect Am [14]: 5 (Weed-killing rate is 100%.)
- Herbicidal effect Xs [15]: 5 (Weed-killing rate is 100%.)
- Herbicidal effect Ga [16]: 5 (Weed-killing rate is 100%.)
- Herbicidal effect At [17]: 5 (Weed-killing rate is 100%.)

SMILES: CCCNC(=O)c1nc2ccccc2nc1C(=O)Nc1c(CC)ccc(Cl)c1CC [compound 1306]
- Post-emergence treatment Monochoria (herbicidal effect) [1]: 5 (Weed-killing rate is 100%.)
- Post-emergence treatment Bulrush (herbicidal effect) [2]: 5 (Weed-killing rate is 100%.)
- Post-emergence treatment Barnyard grass (herbicidal effect) [3]: 5 (Weed-killing rate is 100%.)
- Herbicidal effect Vp [4]: 5 (Weed-killing rate is 100%.)
- Herbicidal effect Ec [5]: 5 (Weed-killing rate is 100%.)
- Herbicidal effect Am [6]: 5 (Weed-killing rate is 100%.)
- Herbicidal effect Xs [7]: 5 (Weed-killing rate is 100%.)
- Herbicidal effect Ga [8]: 5 (Weed-killing rate is 100%.)
- Herbicidal effect At [9]: 5 (Weed-killing rate is 100%.)
- Phytotoxicity So (soybean plant): 5 (Crop-killing rate is 100%.)
- Phytotoxicity Wh (wheat): 5 (Crop-killing rate is 100%.)
- Phytotoxicity So (soybean plant (So)): 5 (Crop-killing rate is 100%.)
- Phytotoxicity Wh (wheat (Wh)): 5 (Crop-killing rate is 100%.)
- Pre-emergence treatment Bulrush (herbicidal effect) [10]: 5 (Weed-killing rate is 100%.)
- Pre-emergence treatment Barnyard grass (herbicidal effect) [11]: 5 (Weed-killing rate is 100%.)
- Herbicidal effect Vp [12]: 5 (Weed-killing rate is 100%.)
- Herbicidal effect Ec [13]: 5 (Weed-killing rate is 100%.)
- Herbicidal effect Am [14]: 5 (Weed-killing rate is 100%.)
- Herbicidal effect Xs [15]: 5 (Weed-killing rate is 100%.)
- Herbicidal effect Ga [16]: 5 (Weed-killing rate is 100%.)
- Herbicidal effect At [17]: 5 (Weed-killing rate is 100%.)
